For the experiment, the target named is Glucagon-like peptide 1 receptor (Homo sapiens, UniProt P43220). The experiment is described as follows: Agonist activity at human GLP-1R expressed in CHO-K1 cells assessed as increase in cAMP level incubated for 30 mins. The experiment is classed as functional, cell-based. In general terms: Changes in cAMP serve as a functional read-out for many G protein-coupled receptors.

Molecules are shown by their SMILES.

Glucagon-like peptide 1 receptor, sequence (P43220 whole entry): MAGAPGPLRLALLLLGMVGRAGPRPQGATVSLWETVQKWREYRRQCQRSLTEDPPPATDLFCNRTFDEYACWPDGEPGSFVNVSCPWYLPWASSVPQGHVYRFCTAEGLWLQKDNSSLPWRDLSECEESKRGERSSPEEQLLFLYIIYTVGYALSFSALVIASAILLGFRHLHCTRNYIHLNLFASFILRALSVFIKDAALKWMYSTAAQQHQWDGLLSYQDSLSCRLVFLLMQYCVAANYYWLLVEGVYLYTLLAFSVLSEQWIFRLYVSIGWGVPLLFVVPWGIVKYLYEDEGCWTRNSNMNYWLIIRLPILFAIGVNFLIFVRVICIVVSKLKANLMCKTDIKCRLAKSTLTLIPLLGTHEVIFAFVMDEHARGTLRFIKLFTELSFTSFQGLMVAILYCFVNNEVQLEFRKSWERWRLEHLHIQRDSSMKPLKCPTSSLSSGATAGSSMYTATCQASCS

What is called EC50 is the concentration that produces a half-maximal response. For `CC[C@H](C)[C@@H]1NC(=O)[C@H](CCC(=O)O)NC(=O)[C@@H]2CCCN2C(=O)[C@H](Cc2cnc[nH]2)NC(=O)[C@H](CC(=O)O)NC(=O)[C@H](Cc2ccc(O)cc2)NC(=O)[C@H](CC(N)=O)NC(=O)[C@@H]2CSSC[C@@H]3NC(=O)CNC(=O)CNC(=O)CNC(=O)[C@H](C)NC(=O)[C@H](C)NC(=O)CNC(=O)CNC(=O)[C@H](CSSC[C@H](NC3=O)C(=O)N[C@@H](CO)C(=O)N[C@@H](CC(=O)O)C(=O)N3CCC[C@H]3C(=O)N[C@@H](CCCNC(=N)N)C(=O)N2)NC1=O`, the EC50 amounted to 0.14 nM.
